From PubChem BioAssay (NCI) come the findings set out here.

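Where inhibition never reached the appropriate level, the endpoint shown equals the highest concentration tested. Otherwise, values were interpolated linearly from a five-concentration, 48-hour dose response in 96-well plates. At the GI50, growth is halved. TGI: total growth inhibition.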

Experiment in all cases: inhibition of tumour cell growth, NCI panel, 48 h
Test [1] relates to MDA-MB-231 breast.
Test [2] concerns T-47D breast.
The test system of test [3] is PC-3 prostate.
In test [4] the test system is MDA-N.
For test [5], the system named is DMS 114 small cell lung.
In test [6] the test system is DLD-1 colon.

With `O=C(/C=C\c1ccc(Cl)cc1Cl)c1cccs1`, the TGI came out at 40.5 µM in test [1], 55.7 µM in test [2], 35.2 µM in test [3] and 35.8 µM in test [4].
As to `CCCc1nc2c(C)cc(-c3nc4ccccc4n3C)cc2n1Cc1ccc(-c2ccccc2C(=O)O)cc1`, the GI50 is 30.3 µM in test [1], 48.5 µM in test [2] and 29.4 µM in test [3]. Besides, the TGI in test [1], in test [2] and in test [3] was more than 100 µM each time.
`Cc1ccc(C)c(-c2csc(Nc3ccc(C)c(C)c3)n2)c1`: the GI50 was more than 100 µM in test [1], more than 100 µM in test [2] and 7 µM in test [3]. The TGI in test [1], in test [2] and in test [3] was more than 100 µM each time.
Take `COc1ccc([N+](=O)[O-])c(S(=O)(=O)c2ccc(Cl)cc2)n1`: the GI50 is 2.83 µM in test [1], 2.12 µM in test [2] and 17.3 µM in test [3]. Besides, the TGI in test [1] was 7.43 µM; in test [2], 5.41 µM; in test [3], 33.8 µM.
Consider `CCOC(=O)c1sc(Nc2ccc(Cl)cc2)nc1C`, for which, in test [1], the GI50 is 1.08 µM and the TGI turned out to be 2.61 µM. In test [3], the GI50 was 1.37 µM and the TGI came out at 3.42 µM.
In the case of `COc1cc2nc(Nc3cccc(F)c3)nc(Nc3cc(C)[nH]n3)c2cc1OC`, the GI50 in test [1] was 1.74 µM; in test [2], 1.36 µM; in test [3] it was 1.68 µM. Moreover, the TGI in test [1] amounted to 3.42 µM; in test [2], 4.05 µM; in test [3] it was 3.39 µM.
In turn, `O=C(Nc1nc2ncn(CC(COc3ccccc3)OC(=O)c3ccccc3)c2c(=O)[nH]1)c1ccccc1` (stereo not given) came in with a TGI in test [5] of more than 100 µM.
Turning to `NS(=O)(=O)c1ccc(N2N=C3c4ccccc4CC3C2c2ccc(Cl)cc2)cc1` (stereo not given), the GI50 in test [1] was 2.89 µM; in test [2], 32.9 µM; in test [3] it was 7.17 µM. For the same molecule, the TGI in test [1] is 8.24 µM; in test [2], more than 100 µM; in test [3] it was 22.6 µM.
As for `NCCNC(=S)S`, the TGI in test [1], in test [2], in test [3] and in test [4] was more than 100 µM throughout.
As for `COc1ccc(-c2ccc(C3CC(c4ccc(Cl)cc4)=NN3)o2)c([N+](=O)[O-])c1` (stereo not given), the GI50 in test [1], in test [2] and in test [3] was more than 100 µM each time. Also, the TGI in test [1], in test [2] and in test [3] was more than 100 µM throughout.
Consider `Nc1ncnc2c1ncn2C1OC(CO)=CC1O` (stereo not given), for which the TGI in test [1], in test [2], in test [3] and in test [4] was more than 37.5 µM in each case.
`C[C@@H]1C=C2C(=O)O[C@@H]3CC[C@H](C1)[C@]23O`: the figures for the GI50 in test [1], in test [2] and in test [3] were 3.96 µM, 3.02 µM and 3.68 µM, respectively. The TGI in test [1] was 17.4 µM; in test [2], 15.1 µM; in test [3], 14.9 µM.
`C=C1C(=O)O[C@H]2[C@H]1CC/C(COC(=O)NCc1c[nH]c3ccc(Cl)cc13)=C\CC[C@@]1(C)O[C@@H]21`: the figures for the GI50 in test [1] and in test [3] were 1.66 µM and 1.52 µM, respectively. Besides, the TGI in test [1] turned out to be 3.3 µM; in test [3], 3.08 µM.
`CN(C)CCCc1c[nH]c2ccccc12`: the TGI in test [1], in test [2], in test [3] and in test [4] was more than 100 µM in each case.
On to `COc1ccc(C2=NN(C(C)=O)C(c3cn(-c4ccccc4)nc3-c3ccc(Cl)cc3)C2)cc1` (stereo not given), for which the GI50 in test [1], in test [2] and in test [3] was more than 100 µM each time. Besides, the TGI in test [1], in test [2] and in test [3] was more than 100 µM throughout.
In the case of `C[C@H]1[C@H](C)CC[C@]2(C(=O)O)CC[C@]3(C)C(=CC[C@@H]4[C@@]5(C)C/C(=C/c6ccco6)C(=O)C(C)(C)[C@@H]5CC[C@]43C)[C@H]12`, the GI50 is 6.72 µM in test [1], 3.79 µM in test [2] and 2.89 µM in test [3]. Also, the TGI was determined as 24.1 µM in test [1], 33.8 µM in test [2] and 13.3 µM in test [3].
On to `CSc1nc2sc3cc(Cl)ccc3n2c(=N)c1C#N`, for which the values for the GI50 in test [1], in test [2] and in test [3] were more than 85.7 µM, 23.7 µM and 42.2 µM, respectively. The TGI in test [1], in test [2] and in test [3] was more than 100 µM each time.
Regarding `Nc1c(C(=O)Nc2ccccc2Cl)sc2nc3c(cc12)CCCCCC3`, the GI50 in test [1] is 2.24 µM; in test [2], 3.88 µM; in test [3], 15.4 µM. Besides, the TGI in test [1] was 14.1 µM; in test [2], 17.2 µM; in test [3], more than 100 µM.
In test [6], `COC(=O)C1=C(CO)C2C=CC1C2` (stereo not given) had a TGI of more than 100 µM.
On to `Cc1ccc(S(=O)(=O)N2CCc3ccc(O)c4c3C2Cc2cc(Cl)ccc2-4)cc1` (stereo not given), for which the GI50 in test [1] is 1.21 µM; in test [2], 1.76 µM; in test [3], 0.917 µM. The TGI in test [1] stood at 4.74 µM; in test [2] it was 19.7 µM; in test [3] it was 6.8 µM.
With `COc1cc(C(=O)c2cc3c(cc2C)OCO3)cc(OC)c1OC`, the GI50 in test [1] is 0.147 µM; in test [2], 0.923 µM; in test [3], 0.141 µM. Moreover, the TGI in test [1], in test [2] and in test [3] was more than 100 µM each time.
For `COc1ccc(-c2nc(-c3nc4ccc(OC)cc4[nH]3)cc3c2[nH]c2ccccc23)cc1`, the GI50 was 8.51 µM in test [1], 2.27 µM in test [2] and 1.52 µM in test [3]. Further, the TGI in test [1], in test [2] and in test [3] was more than 100 µM throughout.
